Biological target: α7-subtype of nicotinic receptors (Mus musculus, UniProt P49582)
Format: in vivo, mice
Settings: ex vivo, mouse hippocampal membranes; dose inhibiting specific binding of 3H-α-bungarotoxin (1 nM) by 50%

Chain of α7-subtype of nicotinic receptors (P49582 23-502): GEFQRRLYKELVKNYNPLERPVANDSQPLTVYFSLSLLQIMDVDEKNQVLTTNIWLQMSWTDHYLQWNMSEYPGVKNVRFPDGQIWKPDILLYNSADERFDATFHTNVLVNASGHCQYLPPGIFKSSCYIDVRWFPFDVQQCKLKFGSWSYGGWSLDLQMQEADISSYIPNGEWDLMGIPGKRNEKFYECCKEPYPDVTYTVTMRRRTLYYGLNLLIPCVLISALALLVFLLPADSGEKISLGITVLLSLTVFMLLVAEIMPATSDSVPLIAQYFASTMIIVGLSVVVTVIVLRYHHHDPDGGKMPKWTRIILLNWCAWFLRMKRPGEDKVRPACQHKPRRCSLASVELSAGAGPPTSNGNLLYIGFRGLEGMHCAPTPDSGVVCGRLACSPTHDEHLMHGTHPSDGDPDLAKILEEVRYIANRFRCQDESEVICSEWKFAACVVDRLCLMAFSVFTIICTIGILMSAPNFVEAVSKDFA

Structure (SMILES): O=c1c2ccccc2nnn1-c1cnc(N2CC[N+]3([O-])CCC2CC3)nc1 [Compound 1, 3-[2-(1-Oxy-1,4-diaza-bicyclo[3.2.2]non-4-yl)-pyrimidin-5-yl]-3H-benzo[d][1,2,3]-triazin-4-one]
- EC50 (mg/kg), Inhibition of 3H-α-Bungarotoxine Binding: 9.4 mg/kg

Source: patent US20120004215A1 (priority 2009, published 2012)
